Measured values from PMC8588511, “Chromane Derivatives from Underground Parts of Iris tenuifolia and Their In Vitro Antimicrobial, Cytotoxicity and Antiproliferative Evaluation” (Molecules, 2021).
Like-named read-outs stand apart in the source and are kept apart here.

What was measured:
[1] = test system: human lung carcinoma cells (A549); experiment: antiproliferation assay (CellTiter-Blue); type: cell-based
Protocol: (§1) In this assay, K-562 (DSM ACC 10), THP-1 (DSM ACC 16), and HeLa (DSM ACC 57) were maintained in Roswell Park Memorial Institute (RPMI) 1640 medium (Cambrex 12-167F) while HUVEC (ATCC CRL-1730) and A549 (DSM ACC 107) were cultured in Dulbecco’s Modified Eagle’s Medium (DMEM) (Cambrex 12-614F). Cells that were grown in the appropriate cell culture medium were supplemented with 10 mL/L ultraglutamine 1 (Cambrex 17-605E/U1), 550 µL/L (50 mg/mL) gentamicin sulfate (Cambrex 17-518Z), and 10% heat inactivated fetal bovine serum (GIBCO Life Technologies 10270-106) at 37 °C. The tested compounds were dissolved in DMSO, and the cells were seeded in 96-well plates at a density of 1 × 10^4 cells/well. As for the antiproliferative effect of the compounds, the cells were incubated for 72 h, and GI50 values were evaluated to be defined as the concentration causing 50% inhibition of proliferation compared to the untreated control. With regard to the cytotoxic assay, HeLa cells were pre-incubated for 48 h without the test compounds. Then, the cells were exposed with different concentrations of compounds and incubated for 72 h. After that, the adherent HeLa cells were fixed by glutaraldehyde and stained with a 0.05% solutions of methylene blue (SERVA 29198) for 15 min. CC50 was evaluated to be defined as the concentration required for the death of 50% of the cell monolayer as compared to control groups. Under our experimental conditions, the optical density measured from the CellTiter-Blue reagent and methylene blue assay is proportional to the number of viable cells. In this experiment, absorbances were measured at 570 nm against the reference wavelength of 600 nm (CellTiter-Blue assay) and at 660 nm (methylene blue assay). Doxorubicin (Adriamycin®) and imatinib (Gleevec®) were used as positive controls for HUVEC, K-562, and HeLa cells. A repeat determination has been conducted in all experiments, and four replicates were assayed. The calculations of the different values of GI50 and CC50 were performed with software Magellan version 3.00 (Tecan Trading AG, Maennedorf, Switzerland).

[2] = test system: human acute monocytic leukemia cells (THP-1); experiment: antiproliferation assay (CellTiter-Blue); type: cell-based
Protocol: as §1

[3] = test system: human chronic myeloid leukemia cells (K-562); experiment: antiproliferation assay (CellTiter-Blue); type: cell-based; settings: for GI50: Homo sapiens, read-out: Antiproliferative Effect, GI50 (CI 95%)
Protocol: as §1

[4] = test system: human umbilical vein endothelial cells (HUVEC); experiment: antiproliferation assay (CellTiter-Blue); type: cell-based; settings: Homo sapiens, 72 h, read-out: Antiproliferative Effect, GI50 (CI 95%)
Protocol: as §1

[5] = test system: Enterococcus faecalis (VRE 1528 R10); experiment: agar diffusion antimicrobial assay; type: cell-based; settings: for zone of inhibition at 1000 µg/mL: Enterococcus faecalis (VRE 1528 R10), 50 μL of 1 mg/mL in DMSO, 18 h, ciprofloxacin 5 µg/mL, read-out: Inhibition Zone of Test Microorganism; for antibacterial activity in words: Enterococcus faecalis VRE, agar diffusion
Protocol: (§2) Compounds 1, 2, 3, 5, 9, and 10 were tested for their antimicrobial activities against S. aureus (JMRC:STI 10760), B. subtilis (JMRC:STI 10880), S. aureus MRSA (JMRC: ST 33793) E. faecalis VRE (JMRC: ST 33700), E. coli (JMRC:ST 33699), P. aeruginosa (JMRC:ST 33771), P. aeruginosa (JMRC:ST 33772), M. vaccae (JMRC:STI 10670), S. salmonicolor (JMRC:ST 35974), C. albicans (JMRC:STI 25000), and P. notatum (JMRC:STI 50164)) using agar diffusion assay as previously published. Strains were obtained from the Jena Microbial Resource Collection (JMRC). The bacteria were cultivated on standard I nutrient agar in Petri dishes at 37 °C. Antifungal bioassays were conducted at 30 °C using the basidiomycetous yeast S. salmonicolor and the filamentous ascomycete P. notatum, which were cultivated on malt agar, and the ascomycetous yeast C. albicans, which was cultivated on yeast morphology agar. After inoculation of the test organisms, a disc (9 mm in diameter) was removed from the center of the Petri dish and 50 μL of the test solution (1 mg/mL in DMSO) was added to the cavity. After 18 h of incubation, the inhibiting areola were measured and documented as diameters in mm. Ciprofloxacin (5 µg/mL in deionized water) and amphotericin B (10 µg/mL in DMSO/MeOH 1:1) were used as reference substances against bacterial and fungal strains, respectively.

[6] = test system: Staphylococcus aureus (MRSA 134/94 R9); experiment: agar diffusion antimicrobial assay; type: cell-based; settings: 50 μL of 1 mg/mL in DMSO, 18 h, ciprofloxacin 5 µg/mL
Protocol: as §2

[7] = test system: Pseudomonas aeruginosa (K799/61 B9); experiment: agar diffusion antimicrobial assay; type: cell-based; settings: Pseudomonas aeruginosa (K799/61 B9); 50 μL of 1 mg/mL in DMSO, 18 h; ciprofloxacin 5 µg/mL
Protocol: as §2

[8] = test system: Pseudomonas aeruginosa (SG137 B7); experiment: agar diffusion antimicrobial assay; type: cell-based; settings: 50 μL of 1 mg/mL in DMSO, 18 h, ciprofloxacin 5 µg/mL
Protocol: as §2

[9] = cytotoxicity assay (methylene blue); type: cell-based, human; settings: human, HeLa, 72 h, read-out: Cytotoxicity CC50 (CI 95%)
Protocol: as §1

[10] = test system: Mycobacterium vaccae (10670 M4); experiment: agar diffusion antimicrobial assay; type: cell-based; settings: for antibacterial activity in words: Mycobacterium vaccae, agar diffusion, compared to ciprofloxacin; for zone of inhibition at 1000 µg/mL: Mycolicibacterium vaccae, Mycobacterium vaccae (10670 M4), 50 μL of 1 mg/mL in DMSO, 18 h, ciprofloxacin 5 µg/mL, read-out: Inhibition Zone of Test Microorganism
Protocol: as §2

[11] = test system: Bacillus subtilis (6633 B1); experiment: agar diffusion antimicrobial assay; type: cell-based; settings: for zone of inhibition at 1000 µg/mL: Bacillus subtilis (6633 B1), 50 μL of 1 mg/mL in DMSO, 18 h, ciprofloxacin 5 µg/mL, read-out: Inhibition Zone of Test Microorganism
Protocol: as §2

[12] = test system: three fungi and eight bacterial strains; experiment: agar diffusion assay, whole panel; type: cell-based; settings: eleven microorganisms
Protocol: as §2

[13] = test system: HUVEC, K-562, THP-1, A549, and HeLa cell lines; experiment: antiproliferative and cytotoxicity assays, all applied cell lines; type: cell-based
Protocol: The tested compounds were dissolved in DMSO, and the cells were seeded in 96-well plates at a density of 1 × 10^4 cells/well. […] With regard to the cytotoxic assay, HeLa cells were pre-incubated for 48 h without the test compounds. Then, the cells were exposed with different concentrations of compounds and incubated for 72 h. […] Under our experimental conditions, the optical density measured from the CellTiter-Blue reagent and methylene blue assay is proportional to the number of viable cells. In this experiment, absorbances were measured at 570 nm against the reference wavelength of 600 nm (CellTiter-Blue assay) and at 660 nm (methylene blue assay). […] A repeat determination has been conducted in all experiments, and four replicates were assayed. The calculations of the different values of GI50 and CC50 were performed with software Magellan version 3.00 (Tecan Trading AG, Maennedorf, Switzerland).

[14] = Homo sapiens, A549, 72 h; read-out: Antiproliferative Effect, GI50 (CI 95%)
[15] = Homo sapiens, THP-1, 72 h; read-out: Antiproliferative Effect, GI50 (CI 95%)

Compound	GI50 [1, 14] [µM]	GI50 [2, 15] [µM]	GI50 ([3]; K562, K-562, 72 h) [µM]	GI50 [4] [µM]	zone of inhibition at 1000 µg/mL [5] [mm]	antibacterial activity in words [5]	Inhibition Zone of Test Microorganism [6]	Inhibition Zone of Test Microorganism [7]	Inhibition Zone of Test Microorganism [8]	CC50 at 72 h ([9]; HeLa cells (DSM ACC 57)) [µM]	antiproliferative / cytotoxic effect in words [13]	further results
O=C1C=CCCC(O)C2CC(=O)c3c(O)cc(cc3O2)OC2OC(CO1)C(O)C(O)C2O (stereo not drawn) [Compound 1, Moniristenulide]	> 100	> 100	> 100	> 100	13	selective activity	-	-	-	> 100		
COc1c2c(cc3c1C1CC(O3)c3ccccc3O1)OCO2 (stereo not drawn) [Compound 2, 5-Methoxy-6,7-methylenedioxy-4-O-2′-cycloflavan]	> 100	29.2	31.5	35.2	14	demonstrated activity	-	-	-	42.6		antibacterial activity in words [10]: demonstrated activity; zone of inhibition at 1000 µg/mL [10]: 17 mm; zone of inhibition at 1000 µg/mL [11]: 12 mm; antibacterial activity in words ([11]; Bacillus subtilis, agar diffusion, compared to ciprofloxacin): demonstrated activity
O=C1C[C@@H](c2cccc(O)c2O)Oc2cc(O)cc(O)c21 [Compound 3, (2S)-5,7,2′,3′-Tetrahydroxyflavanone]	> 100	> 100	32.3	> 100	17	highest antibacterial activity	-	-	-	> 100		antiproliferative activity in words ([3]; K-562): selective antiproliferative inhibition effect; antibacterial activity in words [10]: highest antibacterial activity; zone of inhibition at 1000 µg/mL [10]: 23 mm; zone of inhibition at 1000 µg/mL [11]: 12 mm; antimicrobial activity over the panel in words [12]: most active
O=C1CC(c2ccccc2O)Oc2cc3c(c(O)c21)OCO3 (stereo not drawn) [Compound 4, 5,2′-Dihydroxy-6,7-methylenedioxyflavanone]	81	16	48.7	73.3						> 100		
COc1cc(O)c2c(c1)OC(c1cccc(O)c1O)CC2=O (stereo not drawn) [Compound 6, 5,2′,3′-Trihydroxy-7-methoxyflavanone]	70.9	16.9	56	68.2						> 100		
COc1cc(O)c2c(c1)OC(c1cccc(O)c1OC)C(O)C2=O (stereo not drawn) [Compound 7, 3,5,3′-Trihydroxy-7,2′-dimethoxyflavanone]	> 100	> 100	97.6	> 100						> 100	reduced or no inhibitory effects	
COc1ccccc1-c1coc2cc(O)c(OC)c(O)c2c1=O [Compound 8, 5,7-Dihydroxy-6,2′-dimethoxyisoflavone]	> 100	> 100	> 100	> 100						> 100	reduced or no inhibitory effects	
COc1cc2occ(-c3ccccc3OC3OC(CO)C(O)C(O)C3O)c(=O)c2c(O)c1OC [Compound 9, 5-Hydroxy-6,7-dimethoxyisoflavone-2′-O-β-D-glucopyranoside]	> 100	> 100	> 100	> 100	13	selective activity	-	-	-	> 100	completely not effective	
CC[C@H](CC[C@@H](C)[C@H]1CC[C@H]2[C@@H]3CC=C4C[C@@H](O)CC[C@]4(C)[C@H]3CC[C@]12C)C(C)C [Compound 12, β-Sitosterol]				> 100							neither an antiproliferative effect nor a cytotoxicity	GI50 ([1]; Homo sapiens, A549, 72 h, read-out: Antiproliferative Effect, GI50 (CI 95%)): > 100 µM; GI50 ([2]; Homo sapiens, THP-1, 72 h, read-out: Antiproliferative Effect, GI50 (CI 95%)): > 100 µM; GI50 ([3]; K562, 72 h): > 100 µM; CC50 at 72 h [9]: > 100 µM
COc1cccc2c1C(=O)c1c(O)c3c(c(O)c1C2=O)C[C@@](O)(C(=O)CO)C[C@@H]3O[C@H]1C[C@H](N)[C@H](O)[C@H](C)O1 [Doxorubicin, reference compound]			0.13	0.13						0.48		
Cc1ccc(NC(=O)c2ccc(CN3CCN(C)CC3)cc2)cc1Nc1nccc(-c2cccnc2)n1 [Imatinib, imatinib, reference compound]			0.2	22.1						78.6		
